Measured values: paper PMC6917776, “Discovery of a chemical probe for PRDM9” (Nature Communications, 2019)
Values joined by “and” are separate entries in the source; they are usually repeats but may differ in a detail not shown here. Identical values can stand only once.

Test system: H3K4me3 at known PRDM9 binding loci and control TSS loci
Assay: ChIP-qPCR of H3K4me3 in PRDM9-transfected HEK293T cells
Type: cell-based, human
Conditions: for 2^-dCq / dCq (IP-Input) / 2^-dCq (H3K4me3 IP relative to H3 IP) / Cq / 2^-dCq (H3K4me3 ChIP relative to H3 ChIP) / 2^-dCq (H3K4me3 ChIP-qPCR, IP relative to H3) / <Cq>: Antibody H3K4me3; for 2^-dCq / dCq (IP-Input) / Cq / <Cq>: Figure 7 Replicate 2; for 2^-dCq (H3K4me3 IP relative to H3 IP): ChIP-qPCR Replicate 1; for Cq: ChIP-qPCR single well; for 2^-dCq (H3K4me3 ChIP relative to H3 ChIP): Replicate 1; for 2^-dCq (H3K4me3 ChIP-qPCR, IP relative to H3) / H3K4me3 ChIP-qPCR 2^-dCq (IP-Input): Replicate 2; for H3K4me3 ChIP-qPCR 2^-dCq (IP-Input): H3K4me3 antibody relative to H3; for <Cq>: mean of two wells
Experimental: ChIP-qPCR assays were then conducted on known PRDM9 binding loci[26]. Ectopic expression of PRDM9^WT increased trimethylation of H3K4 (H3K4me3) at previously described PRDM9-specific intragenic and intergenic regions[26] (Fig. 7; Supplementary Fig. 12). […] The observed increases in H3K4me3 levels at intragenic and intergenic regions are therefore due directly to PRDM9 PR domain-dependent methylation activity, rather than through recruitment of other H3K4 methyltransferases or other indirect mechanisms.
ChIP qPCR analyses of H3K4me3 methylation levels of known PRDM9-bound loci and control loci. […] Concentrations used (µM) are indicated below each plot. (a–d) represent reported loci of PRDM9 methylation; (e, f) are transcriptional start sites (TSSs) which are not known loci of PRDM9 methylation. Data are normalized to total H3 and are presented as the mean ± upper and lower limits from two replicates. Representative plots of two independent experiments are shown in this figure. The coordinates and the genomic features associated with the assayed loci are indicated above each plot. Left Tailed Student's t-tests were performed by comparing DMSO (0 µM) treated cells to compound treated cells that have been transfected with the same plasmids. *p-value < 0.05 and **p-value < 0.01. Note that here we show a representative of two independent experiments (mean ± s.d of technical replicates) for our ChIP-qPCR experiments. Data obtained using this technique are inherently noisy due to stochastic differences in gene activity/histone positioning. Data are thus typically presented as representative rather than averaged. Source data are provided as a Source Data file.
HEK293T cells were transfected with 37.5 μg empty pcDNA3.1(+) vector (Invitrogen), or the same vector expressing either wild-type PRDM9 (PRDM9^WT) or a catalytically dead PRDM9 mutant (PRDM9^Mut) and 75 μL of Lipofectamine 2000 (Invitrogen) in 6 mL of Opti-MEM (GIBCO) for 48 h. […] ChIP assays were then performed as previously described. Briefly, cells were fixed in 1% formaldehyde and the fixation reaction was quenched in a final concentration of 0.1 M glycine. Cell pellets were first lysed in LB1 (50 mM HEPES-KOH pH 7.5, 140 mM NaCl, 1 mM EDTA, 10% Glycerol, 0.5% Igepal, 0.25% TritonX), washed once in LB2 Buffer (10 mM Tris-HCl pH 8, 200 mM NaCl, 1 mM EDTA, 0.5 mM EGTA) and finally sonicated in LB3 buffer (10 mM Tris-HCl pH 8, 100 mM NaCl, 1 mM EDTA, 0.5 mM EGTA, 0.1% Sodium deoxycholate, 0.5% N-laurosylsarcosine) using a bioruptor (Diagenode). Thereafter, 50 μg of chromatin was subjected to ChIP using the following antibodies purchased from Abcam: α-H3K4me3 (1:200, ab8580, lot:GR3207339-1) and α-H3 (1:250, ab1791, lot:GR300978-4). After extensive washing in RIPA wash buffer (50 mM HEPES-KOH pH 7.6, 100 mM LiCl, 1 mM EDTA, 1% Igepal, 0.7% Sodium Deoxycholate), DNA was eluted from beads. The eluted DNA was treated with RNase A and Proteinase K and purified using the QIAGEN PCR purification kit. qPCR was then carried out targeting the indicated loci (Supplementary Table 3). Upper and lower limits were defined by |2^−(dCq±s) − 2^−(∆Cq)|, where s = √((Standard deviation of Input Cq)^2 + (Standard deviation of Target Cq)^2). […]
formation. ChIP qPCR analyses of H3K4me3 methylation levels at known PRDM9-bound and control loci. Cells transfected with empty vector (negative control) or vectors overexpressing either wild-type PRDM9 (PRDM9 WT) or catalytically dead PRDM9 (PRDM9 MUT) were […]
Panels a-d represent reported loci of […]
(1 picture or pasted object on this page, not shown here)
PRDM9 methylation; e-f are TSSs which are not known sites of PRDM9 methylation. Data are normalized to total H3 and are presented as the mean ± upper and lower limits from two […]

[1] = Figure 7 E chr12:6643945-6644023 TSS (GAPDH), Plasmid Empty Vector, Drug Conc. 5
[2] = Figure 7 E chr12:6643945-6644023 TSS (GAPDH), Plasmid Empty Vector, Drug Conc. 10
[3] = Figure 7 E chr12:6643945-6644023 TSS (GAPDH), Plasmid PRDM9WT, Drug Conc. 5
[4] = Figure 7 E chr12:6643945-6644023 TSS (GAPDH), Plasmid PRDM9WT, Drug Conc. 10
[5] = Figure 7 F chr19:8510167-8510261 TSS (HNRNPM), Plasmid Empty Vector, Drug Conc. 5
[6] = Figure 7 F chr19:8510167-8510261 TSS (HNRNPM), Plasmid Empty Vector, Drug Conc. 10
[7] = Figure 7 F chr19:8510167-8510261 TSS (HNRNPM), Plasmid PRDM9WT, Drug Conc. 5
[8] = Figure 7 F chr19:8510167-8510261 TSS (HNRNPM), Plasmid PRDM9WT, Drug Conc. 10

## COc1cc(OC)cc(-c2noc(N3CCN(C)C4(CCN(c5ccccc5)CC4)C3)n2)c1 [MRK-740-NC]
Plasmid PRDM9WT, Drug Conc. 5
  2^-dCq: 34.845
  dCq (IP-Input): -5.123
  Cq: 21.4925 and 21.6408
  <Cq>: 21.5667
Plasmid PRDM9WT, Drug Conc. 10
  2^-dCq: 50.1539
  dCq (IP-Input): -5.648
  Cq: 21.2248 and 20.9811
  <Cq>: 21.103
[1]
  2^-dCq (H3K4me3 IP relative to H3 IP): 96.9166
  2^-dCq (H3K4me3 ChIP-qPCR, IP relative to H3): 90.8317
[2]
  2^-dCq (H3K4me3 IP relative to H3 IP): 40.6216
  2^-dCq (H3K4me3 ChIP-qPCR, IP relative to H3): 79.4548
[3]
  2^-dCq (H3K4me3 IP relative to H3 IP): 33.0164
  2^-dCq (H3K4me3 ChIP-qPCR, IP relative to H3): 29.3928
[4]
  2^-dCq (H3K4me3 IP relative to H3 IP): 25.1288
  2^-dCq (H3K4me3 ChIP-qPCR, IP relative to H3): 64.1533
[5]
  2^-dCq (H3K4me3 IP relative to H3 IP): 88.9762
  2^-dCq (H3K4me3 ChIP-qPCR, IP relative to H3): 64.4199
[6]
  2^-dCq (H3K4me3 IP relative to H3 IP): 43.9056
  2^-dCq (H3K4me3 ChIP-qPCR, IP relative to H3): 72.9088
[7]
  2^-dCq (H3K4me3 IP relative to H3 IP): 32.8222
  2^-dCq (H3K4me3 ChIP-qPCR, IP relative to H3): 34.845
[8]
  2^-dCq (H3K4me3 IP relative to H3 IP): 26.0973
  2^-dCq (H3K4me3 ChIP-qPCR, IP relative to H3): 50.1539
Figure 7 A, chr2:128811847-128811944 (Intergenic), Plasmid Empty Vector, Drug Conc. 5
  2^-dCq (H3K4me3 ChIP relative to H3 ChIP): 0.5813
Figure 7 A, chr2:128811847-128811944 (Intergenic), Plasmid Empty Vector, Drug Conc. 10
  2^-dCq (H3K4me3 ChIP relative to H3 ChIP): 0.3956
Figure 7 A, chr2:128811847-128811944 (Intergenic), Plasmid PRDM9WT, Drug Conc. 5
  2^-dCq (H3K4me3 ChIP relative to H3 ChIP): 2.494
Figure 7 A, chr2:128811847-128811944 (Intergenic), Plasmid PRDM9WT, Drug Conc. 10
  2^-dCq (H3K4me3 ChIP relative to H3 ChIP): 2.2717
Figure 7 B, chr8:49932778-49932856 (Intergenic), Plasmid Empty Vector, Drug Conc. 5
  2^-dCq (H3K4me3 ChIP relative to H3 ChIP): 0.3925
Figure 7 B, chr8:49932778-49932856 (Intergenic), Plasmid Empty Vector, Drug Conc. 10
  2^-dCq (H3K4me3 ChIP relative to H3 ChIP): 0.1726
Figure 7 B, chr8:49932778-49932856 (Intergenic), Plasmid PRDM9WT, Drug Conc. 5
  2^-dCq (H3K4me3 ChIP relative to H3 ChIP): 4.749
Figure 7 B, chr8:49932778-49932856 (Intergenic), Plasmid PRDM9WT, Drug Conc. 10
  2^-dCq (H3K4me3 ChIP relative to H3 ChIP): 4.289
Figure 7 C, chr2:40281930-40282015 Intragenic (SLC8A1-AS1), Plasmid Empty Vector, Drug Conc. 5
  2^-dCq (H3K4me3 ChIP relative to H3 ChIP): 0.3263
Figure 7 C, chr2:40281930-40282015 Intragenic (SLC8A1-AS1), Plasmid Empty Vector, Drug Conc. 10
  2^-dCq (H3K4me3 ChIP relative to H3 ChIP): 0.2399
Figure 7 C, chr2:40281930-40282015 Intragenic (SLC8A1-AS1), Plasmid PRDM9WT, Drug Conc. 5
  2^-dCq (H3K4me3 ChIP relative to H3 ChIP): 5.248
Figure 7 C, chr2:40281930-40282015 Intragenic (SLC8A1-AS1), Plasmid PRDM9WT, Drug Conc. 10
  2^-dCq (H3K4me3 ChIP relative to H3 ChIP): 4.126
HEK293T transfected with wild-type PRDM9, 48 h, various concentrations
  H3K4me3 levels at PRDM9-dependent intragenic and intergenic loci (ChIP-qPCR, in words): negligible impact
Figure 7 D chr3:165514798-165514911 Intragenic (BCHE), Plasmid Empty Vector, Drug Conc. 5
  2^-dCq (H3K4me3 ChIP-qPCR, IP relative to H3): 0.55
Figure 7 D chr3:165514798-165514911 Intragenic (BCHE), Plasmid Empty Vector, Drug Conc. 10
  2^-dCq (H3K4me3 ChIP-qPCR, IP relative to H3): 0.9804
Figure 7 D chr3:165514798-165514911 Intragenic (BCHE), Plasmid PRDM9WT, Drug Conc. 5
  2^-dCq (H3K4me3 ChIP-qPCR, IP relative to H3): 6.945
Figure 7 D chr3:165514798-165514911 Intragenic (BCHE), Plasmid PRDM9WT, Drug Conc. 10
  2^-dCq (H3K4me3 ChIP-qPCR, IP relative to H3): 8.326
chr2:40281930-40282015 Intragenic (SLC8A1-AS1), Figure 7 C, Empty Vector, Drug Conc. 5
  H3K4me3 ChIP-qPCR 2^-dCq (IP-Input): 0.5453
chr2:40281930-40282015 Intragenic (SLC8A1-AS1), Figure 7 C, Empty Vector, Drug Conc. 10
  H3K4me3 ChIP-qPCR 2^-dCq (IP-Input): 0.744
chr2:40281930-40282015 Intragenic (SLC8A1-AS1), Figure 7 C, PRDM9WT, Drug Conc. 5
  H3K4me3 ChIP-qPCR 2^-dCq (IP-Input): 5.233
chr2:40281930-40282015 Intragenic (SLC8A1-AS1), Figure 7 C, PRDM9WT, Drug Conc. 10
  H3K4me3 ChIP-qPCR 2^-dCq (IP-Input): 7.127
chr2:128811847-128811944 (Intergenic), Figure 7 A, Empty Vector, Drug Conc. 5
  H3K4me3 ChIP-qPCR 2^-dCq (IP-Input): 1.312
chr2:128811847-128811944 (Intergenic), Figure 7 A, Empty Vector, Drug Conc. 10
  H3K4me3 ChIP-qPCR 2^-dCq (IP-Input): 1.714
chr2:128811847-128811944 (Intergenic), Figure 7 A, PRDM9WT, Drug Conc. 5
  H3K4me3 ChIP-qPCR 2^-dCq (IP-Input): 3.31
chr2:128811847-128811944 (Intergenic), Figure 7 A, PRDM9WT, Drug Conc. 10
  H3K4me3 ChIP-qPCR 2^-dCq (IP-Input): 4.0213
chr8:49932778-49932856 (Intergenic), Figure 7 B, Empty Vector, Drug Conc. 5
  H3K4me3 ChIP-qPCR 2^-dCq (IP-Input): 0.869
chr8:49932778-49932856 (Intergenic), Figure 7 B, Empty Vector, Drug Conc. 10
  H3K4me3 ChIP-qPCR 2^-dCq (IP-Input): 0.9683
chr8:49932778-49932856 (Intergenic), Figure 7 B, PRDM9WT, Drug Conc. 5
  H3K4me3 ChIP-qPCR 2^-dCq (IP-Input): 6.096
chr8:49932778-49932856 (Intergenic), Figure 7 B, PRDM9WT, Drug Conc. 10
  H3K4me3 ChIP-qPCR 2^-dCq (IP-Input): 6.298
